IC50 data for 27 compounds are collected here from US20240132464A1, “HETEROCYCLIC COMPOUNDS AS E3 LIGASE INHIBITORS” (Accutar Biotechnology Inc., priority 2022, published 2024).

The test concerns the target T1, GID4 (Uniprot ID: Q81VV7, residues 124-289) (Homo sapiens, UniProt Q8IVV7).
T1 construct: GID4 (Uniprot ID: Q81VV7, residues 124-289)
T1 sequence (Q8IVV7 124-289): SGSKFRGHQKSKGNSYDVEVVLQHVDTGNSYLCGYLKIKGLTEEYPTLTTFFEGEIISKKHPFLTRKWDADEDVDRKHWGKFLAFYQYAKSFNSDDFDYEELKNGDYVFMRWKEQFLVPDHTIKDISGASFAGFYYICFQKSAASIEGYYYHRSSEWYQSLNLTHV
Description: GID4 competitive binding assay (AlphaScreen, GID4/degron peptide PGLW). The settings on record: 24 nM GID4, 48 nM biotinylated degron peptide PGLW, 4° C., read-out: IC50 (Inhibition of GID4/Degron binding by test compounds). As for the experimental part:
GID4 Competitive Binding Assay
GID4 binding affinity of compounds disclosed herein was measured by monitoring the interaction of GID4 with its degron peptide (PGLW) in the presence of the test compounds. A truncated version of GID4 (Uniprot ID: Q81VV7, residues 124-289) with a 6*His at its C-terminus was used in this assay. Tetrapeptide, PGLW, was synthesized and tagged with an additional lysine labeled with biotin at its sidechain.
GID4 competitive binding assays were performed in a 384-well plate at 4° C. in a 20 μL reaction volume. Briefly, 24 nM GID4 (final concentration) proteins were pre-incubated with 48 nM biotinylated degron peptide (final concentration) in an assay buffer containing 20 mM HEPES, pH 7.5, 100 mM NaCl, 1 mM DTT, 0.1% Tween-20, and 0.05% BSA in the presence of the test compound in 2% DMSO (final concentration) at various concentrations for 2 h. 5 ug/ml Streptavidin ALphaScreen donor beads and 5 ug/ml nickel chelate (Ni-NTA) ALphaScreen acceptor beads (PerkinElmer, 6760619C) (final concentrations) were then added to the mixture. After an incubation of 1 h at 4° C., the fluorescent signals were obtained on the EnVision® 2105 Multilabel Plate Reader (PerkinElmer).
Raw ALphaScreen data were converted to a percentage of inhibition (relative to DMSO) using the following equations: […]
For a given test compound concentration X:
Signal (X)=Signal (GID4 & peptide & compound)−Signal (GID4 & buffer & compound)
Percentage of inhibition at concentration X=[1−Signal(X)/Signal (DMSO)]*100% b)
The IC50 values were determined by nonlinear regression of plots of [inhibitor] vs. percentage of inhibition with variable slope.
Table 3 summarizes the inhibition of binding between GID4 and degron peptide with compounds of the present disclosure. Compounds were ranked into bins as follows for IC50: A indicates <500 nM; B indicates 500 nM-5000 nM; C indicates >5000 nM.
In general terms: Alpha assays give light when donor and acceptor beads are brought close together.
`CC(C)c1cc(N2CCN(C)C(c3cnc4ccccn34)C2)nc(N)n1` (racemic) [Compound 106, (R/S)-4-(3-(imidazo[1,2-a]pyridin-3-yl)-4-methylpiperazin-1-yl)-6-isopropylpyrimidin-2-amine]: the IC50 is under 0.5 µM. In the case of `CNc1cc(N2CCO[C@@H](c3ccccc3)C2)nc(N)n1` (racemic) [Compound 109, (S/R)-N4-methyl-6-(2-phenylmorpholino)pyrimidine-2,4-diamine], the IC50 lay within 0.5 to 5 µM. The same measure for `Nc1nc(NCC2CC2)cc(N2CCN[C@@H](c3ccccc3Br)C2)n1` (racemic) [Compound 112, (S/R)-6-(3-(2-bromophenyl)piperazin-1-yl)-N4-(cyclopropylmethyl)pyrimidine-2,4-diamine]: under 0.5 µM. The same measure for `CNc1nc(N)cc(N2CCNC(c3ccccc3Br)C2)n1` (racemic) [Compound 114, (S/R)-6-(3-(2-bromophenyl)piperazin-1-yl)-N2-methylpyrimidine-2,4-diamine]: under 0.5 µM. The result for `Nc1cc(N2CCCC(c3cnc4ccccn34)C2)nc(N)n1` (racemic) [Compound 116, (R/S)-6-(3-(imidazo[1,2-a]pyridin-3-yl)piperidin-1-yl)pyrimidine-2,4-diamine] reads 0.5 to 5 µM. As to `CNc1nc(N)cc(N2CCCC(c3cnc4ccccn34)C2)n1` (racemic) [Compound 117, (S/R)-6-(3-(imidazo[1,2-a]pyridin-3-yl)piperidin-1-yl)-N2-methylpyrimidine-2,4-diamine], the IC50 is 0.5 to 5 µM. The result for `CNc1nc(N)cc(N2CCCC(c3cnc4ccccn34)C2)n1` (racemic) [Compound 118, (R/S)-6-(3-(imidazo[1,2-a]pyridin-3-yl)piperidin-1-yl)-N2-methylpyrimidine-2,4-diamine] reads 0.5 to 5 µM; that for `Nc1cc(N2CCNC(c3cnc4ccccn34)C2)nc(N)n1` (racemic) [Compound 119, (S/R)-6-(3-(imidazo[1,2-a]pyridin-3-yl)piperazin-1-yl)pyrimidine-2,4-diamine], over 5 µM; that for `Nc1cc(N2CCNC(c3cnc4ccccn34)C2)nc(N)n1` (racemic) [Compound 120, (R/S)-6-(3-(imidazo[1,2-a]pyridin-3-yl)piperazin-1-yl)pyrimidine-2,4-diamine], 0.5 to 5 µM. Take `Nc1nc(NC2CC2)cc(N2CCN[C@@H](c3ccccc3Br)C2)n1` (racemic) [Compound 122, (S/R)-6-(3-(2-bromophenyl)piperazin-1-yl)-N4-cyclopropylpyrimidine-2,4-diamine]: the IC50 was under 0.5 µM.

Turning to `CNc1cc(N2CCCC(c3cnc4ccccn34)C2)nc(NC)n1` (racemic) [Compound 123, (S/R)-6-(3-(imidazo[1,2-a]pyridin-3-yl)piperidin-1-yl)-N2,N4-dimethylpyrimidine-2,4-diamine], the IC50 is 0.5 to 5 µM. The same measure for `CNc1cc(N2CCCC(c3cnc4ccccn34)C2)nc(NC)n1` (racemic) [Compound 124, (R/S)-6-(3-(imidazo[1,2-a]pyridin-3-yl)piperidin-1-yl)-N2,N4-dimethylpyrimidine-2,4-diamine]: 0.5 to 5 µM.

As for `CNc1cc(N2CCN[C@@H](c3ccccc3)C2)nc(N)n1` (racemic) [Compound 129, (S/R)-N4-methyl-6-(3-phenylpiperazin-1-yl)pyrimidine-2,4-diamine], the IC50 was 0.5 to 5 µM.

As for `Nc1cc(N2CCOC(c3cnc4ccccn34)C2)nc(N)n1` (racemic) [Compound 136, (R/S)-6-(2-(imidazo[1,2-a]pyridin-3-yl)morpholino)pyrimidine-2,4-diamine], the IC50 was over 5 µM. Turning to `CN1CCN(c2cc(N)nc(N)n2)C[C@@H]1c1ccccc1Br` (racemic) [Compound 144, (S/R)-6-(3-(2-bromophenyl)-4-methylpiperazin-1-yl)pyrimidine-2,4-diamine], the IC50 was over 5 µM. For the compound `Nc1cc(N2CCOC(c3ccccc3Br)C2)nc(N)n1` (racemic) [Compound 145, (R/S)-6-(2-(2-bromophenyl)morpholino)pyrimidine-2,4-diamine], the IC50 was 0.5 to 5 µM. The same measure for `CC(C)c1cc(N2CCCC(c3cnc4ccccn34)C2)ncn1` (racemic) [Compound 148, (R/S)-3-(1-(6-isopropylpyrimidin-4-yl)piperidin-3-yl)imidazo[1,2-a]pyridine]: over 5 µM.

Consider `CC(C)c1cc(N2CCOC(c3cnc4ccccn34)C2)nc(N)n1` (racemic) [Compound 156, (R/S)-4-(2-(imidazo[1,2-a]pyridin-3-yl)morpholino)-6-isopropylpyrimidin-2-amine], for which the IC50 is over 5 µM. `CC(C)c1cc(N2CCOC(c3ccccc3Br)C2)nc(N)n1` (racemic) [Compound 158, (R/S)-4-(2-(2-bromophenyl)morpholino)-6-isopropylpyrimidin-2-amine]: the IC50 is over 5 µM. The result for `CC(C)c1cc(N2CCN(C)[C@@H](c3ccccc3Br)C2)nc(N)n1` (racemic) [Compound 161, (S/R)-4-(3-(2-bromophenyl)-4-methylpiperazin-1-yl)-6-isopropylpyrimidin-2-amine] reads 0.5 to 5 µM.

On to `CC(C)c1cc(N2CC[C@@H](F)[C@@H](c3ncn4ccccc34)C2)nc(N)n1` (racemic) [Compound 229, 4-((3R,4R)-4-fluoro-3-(imidazo[1,5-a]pyridin-1-yl)piperidin-1-yl)-6-isopropylpyrimidin-2-amine], for which the IC50 was over 5 µM.

Consider `CC(C)c1cc(N2CCNC(c3cnc4ccccn34)C2)c2cc[nH]c2n1` (racemic) [Compound 371, (R/S)-3-(4-(6-isopropyl-1H-pyrrolo[2,3-b]pyridin-4-yl)piperazin-2-yl)imidazo[1,2-a]pyridine], for which the IC50 is under 0.5 µM. The result for `Nc1cc(N2CC[C@H](O)[C@@H](c3ccccc3Br)C2)nc(N)n1` (relative stereo) [Compound 222, (3,4-trans)-3-(2-bromophenyl)-1-(2,6-diaminopyrimidin-4-yl)piperidin-4-ol] reads 0.5 to 5 µM; that for `CC(C)c1cc(N2CC[C@H](O)[C@@H](c3ccccc3Br)C2)nc(N)n1` (relative stereo) [Compound 223, (3,4-trans)-1-(2-amino-6-isopropylpyrimidin-4-yl)-3-(2-bromophenyl)piperidin-4-ol], 0.5 to 5 µM; that for `Cc1c(-c2ccc(Br)c(C3CN(c4cc(N)nc(N)n4)CCN3)c2)cnn1C` (single isomer, unassigned) [Compound 4, (R/S)-6-(3-(2-bromo-5-(1,5-dimethyl-1H-pyrazol-4-yl)phenyl)piperazin-1-yl)pyrimidine-2,4-diamine], 0.5 to 5 µM. As for `Cc1c(-c2ccc(Br)c(C3CN(c4cc(C(C)C)nc(N)n4)CCN3)c2)cnn1C` (single isomer, unassigned) [Compound 6, R or S-4-(3-(2-bromo-5-(1,5-dimethyl-1H-pyrazol-4-yl)phenyl)piperazin-1-yl)-6-isopropylpyrimidin-2-amine], the IC50 was under 0.5 µM. The result for `Cc1c(-c2ccc(Br)c(C3CN(c4cc(C(C)C)nc(N)n4)CCN3)c2)cnn1C` (single isomer, unassigned) [Compound 7, R or S-4-(3-(2-bromo-5-(1,5-dimethyl-1H-pyrazol-4-yl)phenyl)piperazin-1-yl)-6-isopropylpyrimidin-2-amine] reads 0.5 to 5 µM.
